Where two headings read alike, the source gives them in different places.
Legend:
[1] = system: p-AKT, p-STAT3, p-ERK, p-4E-BP1; assay: c-MET downstream signaling; type: cell-based, human; conditions: SW1736 and TL3; for levels of p-STAT3 and p-AKT / phosphorylation of ERK and 4E-BP1: 0.1, 1.0, and 10 μM
c-MET [2] = target: T1, c-MET (Homo sapiens, UniProt P08581); conditions: 10μM; SW1736 and TL3; HGF 20 ng/ml, 10 minutes
[3] = system: PTC cell lines (BHP, B-CPAP and TPC-1); conditions: cited from earlier work
T2 cells [4] = assay: Apoptosis assay; type: cell-based, human; conditions: 10 μM, 24 hours, diluent control 11%
HT29 cells = assay: MTT cellular proliferation assay, HT29; type: cell-based; conditions: Homo sapiens, HT-29, 72 h, read-out: Growth inhibition (IC50)
[5] = system: thyroid cancer cell lines (SW1736, T2, TL3, BHP2-7); assay: MTT cellular proliferation assay, responsive thyroid cancer cell lines; type: cell-based; conditions: Homo sapiens, SW-1736, 72 h, read-out: IC50 of proliferation
TL3 cells [6] = assay: Apoptosis assay; type: cell-based, human; conditions: 10 μM, 24 hours, diluent control 10%
MDA-MB-231 cells = assay: MTT cellular proliferation assay, MDA-MB-231; type: cell-based; conditions: Homo sapiens, MDA-MB-231, 72 h, read-out: Growth inhibition (IC50)
TL3 cells [7] = assay: MTT cellular proliferation assay, TL3; type: cell-based; conditions: Homo sapiens; for IC50: 72 h, read-out: Growth inhibition (IC50)
[8] = system: SW1736 human anaplastic thyroid tumor xenografts; assay: Murine xenograft model; type: in vivo, nu/nu athymic mice
SW1736 cells [9] = assay: Cell cycle analysis; type: cell-based, human; conditions: 24 hour, diluent control 9%
TL3 cells [10] = assay: Cell cycle analysis; type: cell-based, human; conditions: 24 hour, control 2%
SW1736 cells [11] = assay: MTT cellular proliferation assay, SW1736; type: cell-based; conditions: Homo sapiens, SW-1736, read-out: inhibition of cell growth
T2 cells [12] = assay: Cell cycle analysis; type: cell-based, human; conditions: 24 hour, control 3%
SW1736 cells [13] = assay: Apoptosis assay; type: cell-based, human; conditions: 10 μM, 24 hours, diluent control 10%
c-MET [14] = target: T1, c-MET; conditions: read-out: p-MET inhibition (IC50); MDA-MB-231; Report; cited from earlier work
c-MET [15] = conditions: read-out: Ki value, c-MET; biochemical analysis; cited from earlier work
c-MET [16] = target: T1, c-MET; assay: HGF induced c-MET phosphorylation; type: cell-based
c-MET [17] = target: T1, c-MET; assay: HGF induced c-MET phosphorylation; type: cell-based; remark: listed apart in the source
c-MET [18] = target: T1, c-MET; assay: HGF induced c-MET phosphorylation; type: cell-based; remark: listed apart in the source
c-MET [19] = target: T1, c-MET; assay: HGF induced c-MET phosphorylation; type: cell-based; remark: listed apart in the source
c-MET [20] = target: T1, c-MET; conditions: read-out: p-MET inhibition (IC50); HT-29; Report; cited from earlier work

T1 sequence (P08581 25-1390): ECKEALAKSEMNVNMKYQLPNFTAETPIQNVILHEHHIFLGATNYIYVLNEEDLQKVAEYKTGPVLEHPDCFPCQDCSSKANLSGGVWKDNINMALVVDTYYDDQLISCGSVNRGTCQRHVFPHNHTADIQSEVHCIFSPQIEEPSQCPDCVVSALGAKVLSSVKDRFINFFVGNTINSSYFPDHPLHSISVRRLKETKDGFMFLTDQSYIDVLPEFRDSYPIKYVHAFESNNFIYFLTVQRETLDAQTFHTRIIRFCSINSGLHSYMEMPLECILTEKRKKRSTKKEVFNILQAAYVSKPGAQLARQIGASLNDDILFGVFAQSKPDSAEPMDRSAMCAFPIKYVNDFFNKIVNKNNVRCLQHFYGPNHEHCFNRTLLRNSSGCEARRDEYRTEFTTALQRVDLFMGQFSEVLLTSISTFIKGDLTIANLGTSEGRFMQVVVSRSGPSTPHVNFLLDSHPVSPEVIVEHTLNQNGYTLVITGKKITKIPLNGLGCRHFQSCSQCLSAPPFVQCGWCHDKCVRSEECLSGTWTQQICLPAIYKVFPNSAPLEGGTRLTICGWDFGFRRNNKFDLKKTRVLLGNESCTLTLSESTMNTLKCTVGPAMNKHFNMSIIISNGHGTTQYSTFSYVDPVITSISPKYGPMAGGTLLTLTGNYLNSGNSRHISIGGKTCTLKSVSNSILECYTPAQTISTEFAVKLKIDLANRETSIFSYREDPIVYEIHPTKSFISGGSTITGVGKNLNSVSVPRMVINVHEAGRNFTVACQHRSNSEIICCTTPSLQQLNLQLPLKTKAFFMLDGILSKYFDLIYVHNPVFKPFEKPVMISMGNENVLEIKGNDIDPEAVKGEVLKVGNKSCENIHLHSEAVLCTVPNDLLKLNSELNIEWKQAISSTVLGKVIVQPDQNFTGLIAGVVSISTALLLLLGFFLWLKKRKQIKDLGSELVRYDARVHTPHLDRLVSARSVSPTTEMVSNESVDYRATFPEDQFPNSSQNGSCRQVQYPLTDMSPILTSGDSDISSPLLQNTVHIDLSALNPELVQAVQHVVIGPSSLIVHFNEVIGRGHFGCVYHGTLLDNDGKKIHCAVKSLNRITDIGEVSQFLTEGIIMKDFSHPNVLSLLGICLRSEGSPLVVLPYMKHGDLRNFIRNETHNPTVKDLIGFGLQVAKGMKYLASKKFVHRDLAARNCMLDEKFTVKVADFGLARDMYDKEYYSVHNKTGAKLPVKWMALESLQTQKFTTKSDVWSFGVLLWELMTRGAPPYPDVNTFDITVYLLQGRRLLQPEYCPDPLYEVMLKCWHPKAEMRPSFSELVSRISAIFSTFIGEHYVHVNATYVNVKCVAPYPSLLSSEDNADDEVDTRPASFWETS

## Cc1[nH]c(/C=C2\C(=O)Nc3ccc(S(=O)(=O)N(C)c4cccc(Cl)c4)cc32)c(C)c1C(=O)N1CCN(C)CC1 [SU11274]
[1]; 10μM
  effect on p-AKT, p-STAT3: inhibited
c-MET [2]
  effect on p-MET: inhibited

## Cc1[nH]c(/C=C2\C(=O)Nc3ccc(S(=O)(=O)Cc4c(Cl)cccc4Cl)cc32)c(C)c1C(=O)N1CCC[C@@H]1CN1CCCC1 [PHA665752]
[3]
  in vitro growth of PTC cell lines: growth inhibited

## C[C@@H](Oc1cc(-c2cnn(C3CCNCC3)c2)cnc1N)c1c(Cl)ccc(F)c1Cl [Crizotinib]
T2 cells [4]
  apoptosis (% Annexin V positive cells): 19%
HT29 cells
  IC50: 2600 nM
[5]
  IC50: 2000 to 3500 nM
TL3 cells [6]
  apoptosis (% Annexin V positive cells): 27%
[1]
  levels of p-STAT3 and p-AKT: potently decreased
  phosphorylation of ERK and 4E-BP1: not significantly altered
MDA-MB-231 cells
  IC50: 2800 nM
TL3 cells [7]
  IC50: 2600 nM
TL3 cells [7]; read-out: inhibition of cell growth
  inhibition at 0.1 µM: < 20%
[8]; 50 mg/kg daily oral gavage, day 50
  decrease of mean tumor volume compared to vehicle group: 55.8%
[8]; 50 mg/kg, day 50, immunohistochemistry
  Ki67 positivity in tumor tissue compared to vehicle: less
[8]; 50 mg/kg, tumors dissected 4 hours after drug administration at day 50, western blotting
  c-MET phosphorylation in tumor tissue compared to vehicle: less
SW1736 cells [9]; 10 μM
  mean G2/M arrest (cells in G2/M): 74%
TL3 cells [10]; 10 μM
  cells in G2/M: 48%
SW1736 cells [11]
  inhibition at 1 µM: < 50%
T2 cells [12]; 10 μM
  cells in G2/M: 26%
SW1736 cells [13]
  apoptosis (% Annexin V positive cells): 15%

## O=C1NC(=O)[C@@H](c2cn3c4c(cccc24)CCC3)[C@@H]1c1c[nH]c2ccccc12 [Tivantinib]
T2 cells [4]
  apoptosis (% Annexin V positive cells): 21%
HT29 cells
  IC50: 540 nM
[5]
  IC50: 100 to 1000 nM
TL3 cells [6]
  apoptosis (% Annexin V positive cells): 20%
c-MET [14]
  IC50: 100 to 300 nM
[1]
  levels of p-STAT3 and p-AKT: potently decreased
  phosphorylation of ERK and 4E-BP1: not significantly altered
MDA-MB-231 cells
  IC50: 650 nM
TL3 cells [7]
  IC50: 330 nM
SW1736 cells [9]; 1 μM
  mean G2/M arrest (cells in G2/M): 57%
c-MET [15]
  Ki: 355 nM
TL3 cells [10]; 1 μM
  cells in G2/M: 23%
c-MET [16]
  IC50: ~1000 nM
T2 cells [12]; 1 μM
  cells in G2/M: 45%
SW1736 cells [13]
  apoptosis (% Annexin V positive cells): 14%
c-MET [17]
  IC50: > 1000 nM
c-MET [18]
  IC50: > 1000 nM
c-MET [19]
  IC50: ~1000 nM
c-MET [20]
  IC50: 100 to 300 nM

Source: publication PMC3947168 (Molecular cancer therapeutics, 2013)
